Results from US20200188426A1, “WOUND MANAGEMENT METHOD” (priority 2018, published 2020).

System: microbes (bacteria, fungi, and viruses)
Experiment: testing of methylene chloride as microbicidal agent
Assay type: cell-based
Settings: in liquid form, prior to evaporation

ClCCl [methylene chloride]
microbicidal activity on contact: kill microbes (bacteria, fungi, and viruses) on contact
